Test results as given in publication PMC10063609, “Discovery of novel cardiac troponin activators using fluorescence polarization-based high throughput screening assays” (Scientific Reports, 2023).
“And” between values parts separate entries of the source, which are not always exact repeats. Equal values may be shown once. Where a name gives a salt, the structure may show the parent alone. Read-outs that look alike come from different tables or passages of the source.

Tests used:
[1] = target: interaction between cTnC and switch peptide of cTnI (cTnISP) (Homo sapiens, UniProt P63316); assay: Fluorescence polarization HTS and dose-response, cTnC/FAM-cTnISP; type: binding; conditions: for Effect on FP from a mixture of FAM-cTnISP and cTnC: dose-response, concentration dependent (Fig. 2a)
Method: (§1) Each compound was tested at a concentration of 50 μmol/L and 10 μmol/L for the cTnISP and cTnIAR screen, respectively. Hits were defined as compounds that changed the average FP value more than five-times the standard deviation (SD) (Fig. 1d, red lines). Moreover, compounds that either increased or decreased the total fluorescence intensity (FI) more than five-times the SD were removed from further analysis, indicating either compound aggregation or unspecific interactions with the fluorophore or protein complex.
(§2) Libraries were reformatted from 96-well plates to Greiner 384-well black plates using a GILSON PipetMax. The plates were sealed with adhesive foil and stored at − 20 °C until further use. […] A total of 40 nL of 10 mmol/L compound stocks were transferred to each well using a Mosquito liquid handler system (final DMSO concentration of 0.1% (v/v)). The plates were incubated in the dark for 30 min at 25 °C, and the fluorescence polarization from each well was measured using a ClarioStar Plate reader with appropriate excitation and emission filter settings. Dose–response curves were constructed by serial dilution of compounds in DMSO and adding a fixed volume to a mixture of peptide and cTnC.
(§3) Fluorescence polarization dose–response and binding experiments were performed in Greiner 384-well black plates in assay buffer (20 mmol/L Tris–HCl pH 7, 100 mmol/L NaCl, 1 mmol/L CaCl2, 1 mmol/L DTT) at 25 °C.

[2] = test system: bovine cardiac myofibrils; assay: NADH-coupled ATPase activity of isolated cardiac myofibrils; type: biochemical; conditions: for Effect on ATPase activity of cardiac myofibrils: submaximal calcium activation (~30% of maximum), pCa 6, up to 100 μmol/L; for Effect on myofibrillar ATPase activity: sub-maximal activation (~70% of maximal), pCa 5.8, up to 100 μmol/L
Method: Bovine cardiac myofibrils (CMF) were freshly prepared from bovine ventricle as previously described[49]. The NADH-coupled ATPase assay was adapted to test the effects of drugs on bovine cardiac myofibrils[50]. Briefly, buffers with varying free [Ca^2+] were prepared by adding the appropriate concentrations of EGTA and CaCl2 calculated using the MAXCHELATOR software. ATPase assays for hits identified in the cTnI switch peptide and anchoring region screens were performed at pCa 6 and pCa 5.8, respectively. […] 20 μL Enzyme mix was added to individual wells using a 12-well multichannel pipette. Appropriate concentrations of drugs were added to each well and the plate was shaken at 1000 rpm for 5 min on a plate shaker and further incubated at room temperature for 10 min. Substrate mix was dispensed into each well using the Gilson PipetMax. The plate was briefly spun down to ensure removal of air bubbles. The reaction was followed by recording the fluorescence intensity of each well with excitation at 380 nm and emission at 470 nm, for 10 min scanning the plate every 30 s. The temperature was kept constant at 25 °C. ATPase rates were extracted by linear regression to datapoints in GraphPad Prism.

[3] = target: interaction between cTnC and the anchoring region of cTnI (cTnIAR) (Homo sapiens, UniProt P63316); assay: Fluorescence polarization HTS, binding and dose-response, cTnC/FAM-cTnIAR; conditions: for FP (mP): cTnIAR primary screen, single concentration 10 μmol/L; for Effect on FP from the cTnC FAM-cTnIAR mixture: dose-response, concentration dependent (Fig. 2c)
Method: as §1, §2, §3

[4] = cTnISP primary screen, LOPAC 1280 library, single concentration 50 μmol/L
[5] = cTnISP primary screen, TOCRIScreen library, single concentration 50 μmol/L
[6] = cTnISP primary screen, ENZO Screenwell library, single concentration 50 μmol/L

## CC(C)c1cccc(C(C)C)c1N1C(=O)c2ccc(O)cc2C1=O [5-HPP-33]
[1]; [4]
  FP (mP): 112 mP
[1]
  Effect on FP from a mixture of FAM-cTnISP and cTnC: increased the FP
[2]
  Effect on ATPase activity of cardiac myofibrils: no or little activation

## O=C(NCc1ccc(C(F)(F)F)cc1)Nc1cccc2cnccc12 [A 425619]
[3]; TOCRIScreen library
  FP (mP): 105.5 mP

## O=C(O)C[C@H]1CC[C@H](c2ccc(NC(=O)c3nnc(Nc4ccc(F)c(F)c4)o3)cc2)CC1 [AZD 3988]
[3]; TOCRIScreen library
  FP (mP): 115.5 mP

## O=C(O)c1ccc(/C=C2\SC(=S)N(c3cccc(C(F)(F)F)c3)C2=O)cc1 [CFTR Inh172]
[1]; [5]
  FP (mP): 127.9 mP
[1]
  Effect on FP from a mixture of FAM-cTnISP and cTnC: increased the FP
[2]
  Effect on ATPase activity of cardiac myofibrils: no or little activation

## N.N.O=C([O-])C1(C(=O)[O-])CCC1.[Pt+2] [Carboplatin]
[3]; ENZO Screenwell library
  FP (mP): 67.3 mP

## [H]/N=C(\N/C(=N/[H])NCCCCCCNC(=N)NC(=N)Nc1ccc(Cl)cc1)Nc1ccc(Cl)cc1 [Chlorhexidine Dihydrochloride]
[3]; ENZO Screenwell library
  FP (mP): 58.8 mP

## N.N.[Cl][Pt][Cl] [Cisplatin, Cis-Diamineplatinum(Ii) Dichloride]
[3]; ENZO Screenwell library
  FP (mP): 61.9 mP
[3]; LOPAC 1280 library
  FP (mP): 56.6 mP

## Cc1ccc2[nH]c(=O)c(C3=NN(C(=O)CCC(=O)O)C(c4ccc(Br)cc4)C3)c(-c3ccccc3)c2c1 (stereo not shown) [DQP 1105]
[3]; TOCRIScreen library
  FP (mP): 103 mP

## Cc1cn[nH]c1 [Fomepizole]
[3]; ENZO Screenwell library
  FP (mP): 118 mP

## CN(C)CCCn1cc(C2=C(c3c[nH]c4ccccc34)C(=O)NC2=O)c2ccccc21 [GF 109203X]
[1]; [5]
  FP (mP): 82.4 mP
[3]; TOCRIScreen library
  FP (mP): 104.5 mP

## CCn1c(-c2nonc2N)nc2cnc(Oc3cccc(NC(=O)c4ccc(OCCN5CCOCC5)cc4)c3)cc21 [GSK 269962]
[3]; TOCRIScreen library
  FP (mP): 104.8 mP

## CN(C)c1cc2c(Nc3ccc4c(cnn4Cc4ccccc4)c3)ncnc2cn1 [GW2974]
[3]; LOPAC 1280 library
  FP (mP): 117.8 mP

## COc1ccc(-c2oc3c(CC=C(C)C)c(O)cc(O)c3c(=O)c2O)cc1 [Icaritin]
[2]
  Effect on myofibrillar ATPase activity: no effect
[3]; LOPAC 1280 library
  FP (mP): 64.6 mP
[3]
  Effect on FP from the cTnC FAM-cTnIAR mixture: decreased the FP

## CC1Cc2ccccc2N1NC(=O)c1ccc(Cl)c(S(N)(=O)=O)c1 (stereo not shown) [Indapamide]
[3]; ENZO Screenwell library
  FP (mP): 116.5 mP

## O=C(O)c1cccc(-c2ccc(-c3cn(C(=O)N4CCCCC4Cc4ccccc4)nn3)cc2)c1 (stereo not shown) [KT203]
[2]
  Effect on myofibrillar ATPase activity: no effect
[3]; LOPAC 1280 library
  FP (mP): 71.7 mP
[3]
  Effect on FP from the cTnC FAM-cTnIAR mixture: decreased the FP

## O=C(O)c1ccc(-c2ccc(/C=C3\SC(=S)N(Cc4ccccc4)C3=O)o2)cc1 [Leukadherin-1]
[3]; LOPAC 1280 library
  FP (mP): 121.9 mP

## O=C1c2c(O)ccc(O)c2C(=O)c2c(NCCNCCO)ccc(NCCNCCO)c21 [Mitoxantrone]
[3]; LOPAC 1280 library
  FP (mP): 57.1 mP

## O=C(Nc1cccc(C(F)(F)F)c1)Nc1ccc(Br)cc1-c1nn[nH]n1 [NS3623]
[1]; [5]
  FP (mP): 121.6 mP
[1]
  Effect on FP from a mixture of FAM-cTnISP and cTnC: increased the FP
[2]
  Effect on ATPase activity of cardiac myofibrils: significantly increased the ATPase activity

## NC(=O)N1c2ccccc2CC(=O)c2ccccc21 [Oxcarbazepine]
[3]; ENZO Screenwell library
  FP (mP): 70.9 mP

## CCN(CC)CCOc1ccc(Nc2ncc3cc(-c4c(Cl)cccc4Cl)c(=O)n(C)c3n2)cc1.Cl.Cl [PD 166285 dihydrochloride]
[1]; [5]
  FP (mP): 78.7 mP

## Cn1cc(-c2[nH]c3cc(NC(=O)[C@H](N)C4CCCCC4)cc4c3c2C=NNC4=O)cn1 [PF 477736]
[1]; [5]
  FP (mP): 64 mP

## Cc1[nH]c(/C=C2\C(=O)Nc3ccc(S(=O)(=O)Cc4c(Cl)cccc4Cl)cc32)c(C)c1C(=O)N1CCC[C@@H]1CN1CCCC1 [PHA 665752]
[1]; [5]
  FP (mP): 76.4 mP

## COc1ccc(Cl)cc1NC(=O)Nc1cc(C)nc2ccccc12 [PQ 401]
[1]; [5]
  FP (mP): 80.2 mP

## OCCN1CCN(CCCN2c3ccccc3Sc3ccc(Cl)cc32)CC1 [Perphenazine]
[1]; [6]
  FP (mP): 73.2 mP

## CN1CCN(CCCN2c3ccccc3Sc3ccc(Cl)cc32)CC1 [Prochlorperazine dimaleate]
[1]; [4]
  FP (mP): 86.2 mP
[1]; [5]
  FP (mP): 78.2 mP

## NCCOc1cc(C(=O)Nc2cc(OCCN)c3ccccc3n2)nc(C(=O)Nc2cc(OCCN)c3ccccc3n2)c1 [Pyridostatin trifluoroacetate salt]
[1]; [4]
  FP (mP): 85.6 mP

## O=C(c1ccc(OCCN2CCCCC2)cc1)c1c(-c2ccc(O)cc2)sc2cc(O)ccc12 [Raloxifene.HCl]
[1]; [6]
  FP (mP): 76.9 mP
[1]; [4]
  FP (mP): 85.5 mP
[1]; cTnISP primary screen, TOCRIScreen library, single concentration 50 μmol/L, listed as Raloxifene hydrochloride
  FP (mP): 87.9 mP and 82.1 mP

## CCOc1cc(CC(=O)N[C@@H](CC(C)C)c2ccccc2N2CCCCC2)ccc1C(=O)O [Repaglinide]
[3]; TOCRIScreen library
  FP (mP): 103.2 mP

## COC(=O)[C@H]1[C@H]2C[C@@H]3c4[nH]c5cc(OC)ccc5c4CCN3C[C@H]2C[C@@H](OC(=O)c2cc(OC)c(OC)c(OC)c2)[C@@H]1OC [Reserpine]
[1]; [6]
  FP (mP): 88.4 mP

## CS(=O)(=O)O.Cn1cc(C2=C(c3cn(CCCSC(=N)N)c4ccccc34)C(=O)NC2=O)c2ccccc21 [Ro 31-8220 mesylate]
[1]; [5]
  FP (mP): 57.9 mP

## COc1cc(C(=O)NC2CCN(C)CC2)ccc1Nc1ncc2c(n1)N(C1CCCC1)CC(F)(F)C(=O)N2C [Ro 3280]
[1]; [5]
  FP (mP): 81.8 mP

## N.N.N.N.N.N.N.N.N.N.N.N.N.N.[Cl-].[Cl-].[Cl-].[Cl-].[Cl-].[Cl-].[O-2].[O-2].[Ru+3].[Ru+3].[Ru+4] [Ruthenium red]
[1]; [4]
  FP (mP): 83.7 mP
[3]; LOPAC 1280 library
  FP (mP): 44.3 mP

## Oc1c2ccccc2c2c3c(cccc13)N=N2 [SP600125]
[3]; LOPAC 1280 library
  FP (mP): 65 mP

## O=C(Nc1cc(C(F)(F)F)cc(C(F)(F)F)c1)c1cnc(Cl)nc1C(F)(F)F [SP 100030]
[1]; [5]
  FP (mP): 70.3 mP

## COc1ccc(CCN(C)CCCOc2ccc(S(=O)(=O)c3c(C(C)C)c4ccccc4n3C)cc2)cc1OC.O=C(O)C(=O)O [SR 33805 oxalate]
[1]; [5]
  FP (mP): 79 mP

## Cc1[nH]c(/C=C2\C(=O)Nc3ccc(S(=O)(=O)N(C)c4cccc(Cl)c4)cc32)c(C)c1C(=O)N1CCN(C)CC1 [SU 11274]
[1]; [5]
  FP (mP): 64.5 mP

## Clc1ccc(C(Cn2ccnc2)OCc2csc3c(Cl)cccc23)c(Cl)c1 (stereo not shown) [Sertaconazole]
[1]; [6]
  FP (mP): 88.2 mP

## COc1cc(C(=O)NC2CCN(C)CC2)c(F)cc1Nc1ncc2c(n1)N(C1CCCC1)CC(F)(F)C(=O)N2C.Cl [TAK 960 hydrochloride]
[1]; [5]
  FP (mP): 88 mP

## Cc1cccc(C)c1-n1c(=O)c2cnc(Nc3ccc(N4CCN(C)CC4)cc3)nc2n2c3ccccc3nc12 [TC-S 7003]
[1]; [5]
  FP (mP): 73.5 mP

## CCN1CCN(C(=O)Cc2ccc(Nc3ncc(F)c(Nc4ccc(C(=O)Nc5ccccc5Cl)cc4)n3)cc2)CC1 [TC-S 7010]
[3]; TOCRIScreen library
  FP (mP): 108.3 mP

## O=[N+]([O-])c1ccc(CNc2nc(NCc3cccc(C(F)(F)F)c3)nc3nc[nH]c23)cc1 [TNP]
[1]
  FP (mP): 90.9 mP

## CC/C(=C(\c1ccccc1)c1ccc(OCCN(C)C)cc1)c1ccccc1 [Tamoxifen Citrate]
[1]; [6]
  FP (mP): 69.1 mP
[1]; [5]
  FP (mP): 62.2 mP

## [H]/N=C(/NCCCCC)N/N=C/c1c[nH]c2ccc(OC)cc12 [Tegaserod maleate]
[1]; [4]
  FP (mP): 78.4 mP

## CS(=O)(=O)O.c1cc2c(cc1C1CCCCC1)c1c3n2CCNC3CCC1 (stereo not shown) [Tetrindole mesylate]
[1]; [5]
  FP (mP): 65 mP

## CSc1ccc2c(c1)N(CCC1CCCCN1C)c1ccccc1S2 (stereo not shown) [Thioridazine.HCl]
[1]; [6]
  FP (mP): 74.3 mP
[1]; [4]
  FP (mP): 89.4 mP

## CN(C)CCOc1ccc(/C(=C(/CCCl)c2ccccc2)c2ccccc2)cc1 [Toremifene Base]
[1]; [6]
  FP (mP): 60.7 mP

## CN1CCN(CCCN2c3ccccc3Sc3ccc(C(F)(F)F)cc32)CC1 [Trifluoperazine dihydrochloride]
[1]; [4]
  FP (mP): 84.5 mP

## N#CC(C#N)=C(N)/C(C#N)=C/c1ccc(O)cc1 [Tyrphostin AG 112]
[3]; LOPAC 1280 library
  FP (mP): 115.8 mP

## C[C@]12C=CC(=O)C=C1CC[C@@H]1C2=CC[C@]2(C)[C@@H](C(=O)CN3CCN(c4cc(N5CCCC5)nc(N5CCCC5)n4)CC3)CC[C@@H]12.O=C(O)/C=C\C(=O)O [U-74389G maleate]
[3]; LOPAC 1280 library
  FP (mP): 115.3 mP

## CCCc1cc(C)[nH]c(=O)c1CNC(=O)c1cc(-c2ccc(N3CCN(C(C)C)CC3)nc2)cc2c1cnn2C(C)C [UNC 1999]
[1]; [5]
  FP (mP): 80.5 mP

## COc1ccc(N(C(=O)Oc2c(C)cccc2C)c2ccnc(Nc3ccc(N4CCN(C)CC4)cc3)n2)c(OC)c1 [WH-4-023]
[1]; [5]
  FP (mP): 56.3 mP

## CCCC[P+](CCCC)(CCCC)Cc1ccc(NC(=O)[C@H](Cc2ccc3ccccc3c2)NC(=NC2CCCCC2)NC2CCCCC2)cc1.Cl.[Cl-] [WIN 64338 hydrochloride]
[3]; TOCRIScreen library
  FP (mP): 71 mP

## CCC(=O)Nc1cccc(Oc2nc(Nc3ccc(N4CCN(C)CC4)cc3OC)ncc2Cl)c1 [WZ4003]
[1]; [4]
  FP (mP): 86.4 mP

## COc1cc(N2CCN(C)CC2)ccc1Nc1ncc2c(n1)N(C)c1ccccc1C(=O)N2 [XMD 8-87]
[1]; [5]
  FP (mP): 81.2 mP

## COc1cc2c(Nc3ccc(NC(=O)c4ccccc4)cc3)ncnc2cc1OCCCN1CCOCC1 [ZM 447439]
[1]; [5]
  FP (mP): 89.2 mP

## Cl.c1ccc(C2CCCC2NC2=NCCCCCCCCCCC2)cc1 (stereo not shown) [cDPCP]
[3]; LOPAC 1280 library
  FP (mP): 67.5 mP

## OCCN1CCN(CC/C=C2/c3ccccc3Sc3ccc(C(F)(F)F)cc32)CC1 [cis-(Z)-Flupenthixol dihydrochloride]
[1]; [4]
  FP (mP): 87.6 mP

## (S)-(+)-Niguldipine hydrochloride
[1]
  FP (mP): 85.7 mP

## BMS-189453
[1]; [4]
  FP (mP): 88.8 mP

## Colistin Sulfate
[1]; [6]
  FP (mP): 78.5 mP
[3]; ENZO Screenwell library
  FP (mP): 71.7 mP
